Assay results from article PMC10845951, “Characterization of a selective, iron-chelating antifungal compound that disrupts fungal metabolism and synergizes with fluconazole” (Microbiology Spectrum, 2024).

System: C. glabrata gene expression
Experiment: RNA sequencing (gene regulation)
Type: cell-based, Candida glabrata
Details: for Log2 Fold-Change: vs DMSO; for Regulation Status: 26CvsDMSO
Protocol: Cells from overnight precultures in YPD medium were reinoculated in fresh YNB −iron medium (see “Culture maintenance” for contents) without iron and grown until OD600 of 0.4. […] Cells were collected from three independent experiments, snap frozen, and stored at −80°C. Total RNA purification was performed as previously described using the RNeasy Mini Kit (74104, Qiagen), and gDNA removal was made using the RNase-Free DNase Set kit (79254, Qiagen). RNA quantification and quality control were done with a Tape Station 4150 (Agilent) ([59]).
Library preparation and sequencing were performed at GenomEast (IGBMC, Illkirch, France). One DMSO 0.05% sample was excluded from the analysis due to insufficient quality. The library was sequenced on Illumina Hiseq 4000 sequencer as single-read 50-base reads following Illumina’s instructions. Reads were pre-processed in order to remove adapter, polyA, and low-quality sequences (Phred quality score below 20). Reads shorter than 40 bases were discarded from further analysis. These pre-processing steps were performed using cutadapt version 1.10 ([60]). Image analysis and base calling were performed using RTA 2.7.7 and bcl2fastq2.17.1.14. Adapter dimer reads were removed using DimerRemover (https://sourceforge.net/projects/dimerremover/). The quality of the RNAseq reads was examined using FastQC 0.11.2 (http://www.bioinformatics.babraham.ac.uk/projects/fastqc/) and FastQScreen 0.5.1 (https://www.bioinformatics.babraham.ac.uk/projects/fastq_screen/). Reads were mapped onto the ASM254v2 assembly of Candida glabrata genome using STAR version 2.5.3a ([61]). Gene expression quantification was performed from uniquely aligned reads using htseq-count version 0.6.1p1 ([62]), with annotations from Ensembl fungi version 50 and union mode. Only non-ambiguously assigned reads have been retained for further analyses. Read counts were normalized across samples with the median-of-ratios method ([63]). Comparisons were implemented in the Bioconductor package DESeq2 version 1.16.1 using the test for differential expression ([64]). Genes with no P-value corresponded to genes with high Cook’s distance that were filtered out. P-values were adjusted for multiple testing using the Benjamini and Hochberg method ([65]). Genes with no adjusted P-value correspond to genes filtered out in the independent filtering step in order to remove reads from genes that have no or little chance of showing evidence of significant differential expression.

## c1ccc(-c2cccc(-c3ccccn3)n2)nc1 [2,2′:6′,2′′-terpyridine]
TSA1 CAGL0K06259g
  Log2 Fold-Change: 1.052
ZPR1 CAGL0K00759g
  Log2 Fold-Change: 0.6092
Gene CAGL0F07029g MET13
  Regulation Status: Downregulated
Gene CAGL0F07513g
  Regulation Status: Downregulated
Gene CAGL0F08481g
  Regulation Status: Downregulated
Gene CAGL0F08503g
  Regulation Status: Downregulated
Gene CAGL0F09163g
  Regulation Status: Downregulated
Gene CAGL0G01903g MET1
  Regulation Status: Downregulated
Gene CAGL0G02695g
  Regulation Status: Downregulated
Gene CAGL0G03619g
  Regulation Status: Downregulated
Gene CAGL0G03861g
  Regulation Status: Downregulated
Gene CAGL0G03883g
  Regulation Status: Downregulated
Gene CAGL0G03905g
  Regulation Status: Downregulated
Gene CAGL0G06050g
  Regulation Status: Downregulated
Gene CAGL0G06402g
  Regulation Status: Downregulated
Gene CAGL0G06600g
  Regulation Status: Downregulated
Gene CAGL0G06732g
  Regulation Status: Downregulated
Gene CAGL0G07711g
  Regulation Status: Downregulated
Gene CAGL0G08712g KGD1
  Regulation Status: Downregulated
Gene CAGL0G09581g
  Regulation Status: Downregulated
Gene CAGL0G10131g
  Regulation Status: Downregulated
Gene CAGL0G10153g
  Regulation Status: Downregulated
Gene CAGL0H02365g
  Regulation Status: Downregulated
Gene CAGL0H02491g
  Regulation Status: Downregulated
Gene CAGL0H02541g
  Regulation Status: Downregulated
Gene CAGL0H03531g MNP1
  Regulation Status: Downregulated
Gene CAGL0H03795g LEU2
  Regulation Status: Downregulated
Gene CAGL0H03993g CIT1
  Regulation Status: Downregulated
Gene CAGL0H05775g
  Regulation Status: Downregulated
Gene CAGL0H05797g
  Regulation Status: Downregulated
Gene CAGL0H06732g
  Regulation Status: Downregulated
Gene CAGL0H06743g
  Regulation Status: Downregulated
Gene CAGL0H07023g
  Regulation Status: Downregulated
Gene CAGL0H08283g HSP10
  Regulation Status: Downregulated
Gene CAGL0H09306g
  Regulation Status: Downregulated
Gene CAGL0H09328g
  Regulation Status: Downregulated
Gene CAGL0H10076g
  Regulation Status: Downregulated
Gene CAGL0I00924g
  Regulation Status: Downregulated
Gene CAGL0I01276g
  Regulation Status: Downregulated
Gene CAGL0I01298g
  Regulation Status: Downregulated
Gene CAGL0I01408g CYC1
  Regulation Status: Downregulated
Gene CAGL0I01496g
  Regulation Status: Downregulated
Gene CAGL0I01848g
  Regulation Status: Downregulated
Gene CAGL0I02728g
  Regulation Status: Downregulated
Gene CAGL0I03190g RIP1
  Regulation Status: Downregulated
Gene CAGL0I04180g AMT1
  Regulation Status: Downregulated
Gene CAGL0I04994g MET6
  Regulation Status: Downregulated
Gene CAGL0I05280g
  Regulation Status: Downregulated
Gene CAGL0I05698g
  Regulation Status: Downregulated
Gene CAGL0I06270g
  Regulation Status: Downregulated
Gene CAGL0I06644g
  Regulation Status: Downregulated
Gene CAGL0I06831g
  Regulation Status: Downregulated
Gene CAGL0I06985g
  Regulation Status: Downregulated
Gene CAGL0I07969g
  Regulation Status: Downregulated
Gene CAGL0I08305g
  Regulation Status: Downregulated
Gene CAGL0I08503g
  Regulation Status: Downregulated
Gene CAGL0I08767g
  Regulation Status: Downregulated
Gene CAGL0I09009g
  Regulation Status: Downregulated
Gene CAGL0I09262g
  Regulation Status: Downregulated
Gene CAGL0I09812g
  Regulation Status: Downregulated
Gene CAGL0I10923g
  Regulation Status: Downregulated
Gene CAGL0J00429g COX6
  Regulation Status: Downregulated
Gene CAGL0J00847g SDH1
  Regulation Status: Downregulated
Gene CAGL0J01463g
  Regulation Status: Downregulated
Gene CAGL0J01699g
  Regulation Status: Downregulated
Gene CAGL0J02090g
  Regulation Status: Downregulated
Gene CAGL0J03806g
  Regulation Status: Downregulated
Gene CAGL0J04026g
  Regulation Status: Downregulated
Gene CAGL0J04268g
  Regulation Status: Downregulated
Gene CAGL0J04554g
  Regulation Status: Downregulated
Gene CAGL0J04884g
  Regulation Status: Downregulated
Gene CAGL0J05302g
  Regulation Status: Downregulated
Gene CAGL0J06380g
  Regulation Status: Downregulated
Gene CAGL0J06490g
  Regulation Status: Downregulated
Gene CAGL0J06820g
  Regulation Status: Downregulated
Gene CAGL0J08316g
  Regulation Status: Downregulated
Gene CAGL0J09680g
  Regulation Status: Downregulated
Gene CAGL0J09790g
  Regulation Status: Downregulated
Gene CAGL0J11484g DUG3
  Regulation Status: Downregulated
Gene CAGL0J11682g
  Regulation Status: Downregulated
Gene CAGL0K00110g AWP2
  Regulation Status: Downregulated
Gene CAGL0K02409g
  Regulation Status: Downregulated
Gene CAGL0K02893g
  Regulation Status: Downregulated
Gene CAGL0K03663g
  Regulation Status: Downregulated
Gene CAGL0K04279g SCM4
  Regulation Status: Downregulated
Gene CAGL0K06677g MET8
  Regulation Status: Downregulated
Gene CAGL0K06853g
  Regulation Status: Downregulated
Gene CAGL0K07315g
  Regulation Status: Downregulated
Gene CAGL0K07678g
  Regulation Status: Downregulated
Gene CAGL0K08184g CCP1
  Regulation Status: Downregulated
Gene CAGL0K08668g MET28
  Regulation Status: Downregulated
Gene CAGL0K08800g ADI1
  Regulation Status: Downregulated
Gene CAGL0K09218g
  Regulation Status: Downregulated
Gene CAGL0K10120g
  Regulation Status: Downregulated
Gene CAGL0K10868g CTA1
  Regulation Status: Downregulated
Gene CAGL0K10956g
  Regulation Status: Downregulated
Gene CAGL0K10978g
  Regulation Status: Downregulated
Gene CAGL0K12100g
  Regulation Status: Downregulated
Gene CAGL0K12958g
  Regulation Status: Downregulated
Gene CAGL0L00429g
  Regulation Status: Downregulated
Gene CAGL0L00759g HIS1
  Regulation Status: Downregulated
Gene CAGL0L00803g
  Regulation Status: Downregulated
